Reference: paper PMC3276110 (ACS Medicinal Chemistry Letters, 2011)

System: multidrug-resistant Dd2 P. falciparum parasites
Experiment: growth inhibition assay
Assay type: cell-based
Conditions: Plasmodium falciparum, DD2, 72 h, read-out: Dd2 GI50, Dd2 intraerythrocytic parasites, 72 h, DAPI

For `C[C@@H]1CN([C@@H](C)CO)C(=O)c2cc(NC(=O)Nc3ccccc3)ccc2O[C@@H](C)CCCCO[C@H]1CN(C)C(=O)OC(C)(C)C` [Compound 17], the GI50 was > 1400 nM.

Compound `C[C@@H]1CN(CCO)C(=O)c2cc(NC(=O)Nc3ccccc3)ccc2O[C@@H](C)CCCCO[C@H]1CN(C)S(=O)(=O)c1ccc(F)cc1` [Compound 30] has a GI50 of 630 nM.
